Source: ChEMBL document CHEMBL1143340, “Osteogenic activity of constituents from Butea monosperma” (Bioorg Med Chem Lett, 2009)
Active and inactive are the calls of the source. The rule behind the calls is not given here.

Test system: Osteoblast
Test: Induction of mineralization in Sprague-Dawley rat calvaria derived primary osteoblast after 7 days by Alizarin Red S staining
Assay type: functional, cell-based

Structure (SMILES) | Activity
COc1cc(O)c2c(=O)c(-c3ccc(O)cc3O)coc2c1 | Active
COc1ccc(-c2coc3cc(O)ccc3c2=O)cc1OC | Active
COc1ccc2c(=O)c(-c3ccc(O)cc3)coc2c1 | Active
COc1ccc(-c2coc3cc(O)ccc3c2=O)cc1 | Active
